Data taken from patent US6399325B1, “DNA encoding a galanin receptor” (priority 1994, dated 2002).

Tested on: mock transformed CHO cells
Assay: cAMP assay in mock transformed CHO cells
Assay type: cell-based
Details: CHO transformants with the plasmid vector without cDNA insert; forskolin 10 μM, porcine galanin 0.1 μM; 37° C. for 30 min
Procedure: (§1) CHO-MGR20 or mock transformed CHO cells were incubated with forskolin (10 μM) and porcine galanin (0.1 μM) at 37° C. for 30 min. The reaction was terminated by extracting the cells with ice-cold ethanol. The amounts of intracellular cAMP were quantitated by EIA. Values indicated are mean±S.E.M. in triplicate assays.
The CHO cells were seeded at 2.0×10^5 cells/well in 24-well tissue culture plates and cultured for two days. The cells were washed two times with HBSS containing 0.1% BSA and 1 mM IBMX, and then the same buffer with experimental agents were added to the wells. After incubation at 37° C. for 30 min, the media were discarded and intracellular cAMP was extracted with ice-cold ethanol. The aliquots of extracts were evaporated and the amounts of cAMP were quantitated by a cAMP EIA system (Amersham) as described by the manufacturer.
as §1, with “Galanin receptor-mediated inhibition of forskolin-stimulated cAMP production was observed. CHO-MGR20” for “CHO-MGR20”

For Porcine Galanin, the “forskolin-stimulated cAMP accumulation” value was “not inhibited”.
